Measurements reported in ChEMBL document CHEMBL1155140, “Differentially expressed proteins in derivatives of Candida albicans displaying a stable histatin 3-resistant phenotype” (2007).
Calls of active or inactive are those of the source. No cut-off for these calls is given here.

What was measured:
Candida albicans [1] = assay: Reduction of TRK1 gene expression in histatin-resistant Candida albicans CAHR04B; type: functional
Candida albicans [2] = assay: Reduction of ATP release in histatin-resistant Candida albicans CAHR04B at 0.2 mg/mL after 45 mins
Candida albicans [3] = assay: Antifungal activity against histatin-resistant Candida albicans CAHR4 at 0.2 mg/mL measured after storage at -80 degC for 1 year; type: functional
Candida albicans [4] = assay: Reduction of ATP release in histatin-resistant Candida albicans CAHR04A at 0.2 mg/mL after 45 mins
Candida albicans [5] = assay: Reduction of TRK1 gene expression in histatin-resistant Candida albicans CAHR04A; type: functional
Candida albicans [6] = assay: Antifungal activity against histatin-susceptible Candida albicans CA132A at 0.2 mg/mL; type: functional
Candida albicans [7] = assay: Antifungal activity against histatin-resistant Candida albicans CAHR04B at 0.2 mg/mL; type: functional
Candida albicans [8] = assay: Antifungal activity against histatin-resistant Candida albicans CAHR04U at 0.2 mg/mL; type: functional
Candida albicans [9] = assay: Antifungal activity against histatin-resistant Candida albicans CAHR04A at 0.2 mg/mL; type: functional
Candida albicans [10] = assay: Reduction of ATP release in histatin-resistant Candida albicans CAHR04U at 0.2 mg/mL after 45 mins
Candida albicans [11] = assay: Antifungal activity against histatin-resistant Candida albicans CAHR1 at 0.2 mg/mL measured after storage at -80 degC for 1 year; type: functional

What does the source list for `CC(C)C[C@H](NC(=O)[C@H](Cc1ccc(O)cc1)NC(=O)[C@H](CC(N)=O)NC(=O)[C@H](CO)NC(=O)[C@H](CCCNC(=N)N)NC(=O)[C@H](Cc1ccc(O)cc1)NC(=O)CNC(=O)[C@H](CCCNC(=N)N)NC(=O)[C@H](Cc1cnc[nH]1)NC(=O)[C@H](CO)NC(=O)[C@H](Cc1cnc[nH]1)NC(=O)[C@H](Cc1cnc[nH]1)NC(=O)[C@H](CCCCN)NC(=O)[C@H](CCC(=O)O)NC(=O)[C@H](Cc1cnc[nH]1)NC(=O)[C@H](Cc1ccccc1)NC(=O)[C@H](CCCCN)NC(=O)[C@H](CCCNC(=N)N)NC(=O)[C@H](CCCCN)NC(=O)[C@H](Cc1ccc(O)cc1)NC(=O)CNC(=O)[C@H](Cc1cnc[nH]1)NC(=O)[C@H](Cc1cnc[nH]1)NC(=O)[C@H](CCCNC(=N)N)NC(=O)[C@H](CCCCN)NC(=O)[C@H](C)NC(=O)[C@H](Cc1cnc[nH]1)NC(=O)[C@H](CO)NC(=O)[C@@H](N)CC(=O)O)C(=O)N[C@@H](Cc1ccc(O)cc1)C(=O)N[C@@H](CC(=O)O)C(=O)N[C@@H](CC(N)=O)C(=O)O` [Histatin 3]?
fold change (FC) (Candida albicans [1]): 1.6; Activity (Candida albicans [2]): Active; Activity (Candida albicans [3]): 94.4%; Activity (Candida albicans [4]): Active; Activity (Candida albicans [5]): Active; fold change (FC) (Candida albicans [5]): 2; Activity (Candida albicans [6]): 91.7%; Activity (Candida albicans [7]): 17.9%; Activity (Candida albicans [8]): 17.9%; Activity (Candida albicans [9]): 17.9%; Activity (Candida albicans [10]): Active; Activity (Candida albicans [11]): 86.4%
